PubChem BioAssay AID248 (DTP/NCI, 2004)
“And” between values parts separate entries of the source, which are not always exact repeats. Identical values can stand only once. Inconclusive results and toxic doses are left out.

System: L1210 leukemia ip in BDF1 mice, survival T/C
Test: NCI In Vivo Anticancer Drug Screen. Data for tumor model L1210 Leukemia (intraperitoneal) in B6D2F1 (BDF1) mice
Conditions: endpoint: mean survival time, higher = longer survival
Procedure, shortened: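 Antitumor effect is assessed in tumor-bearing animals. Survival in the compound arm is compared with a vehicle-dosed control arm and expressed as their quotient.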

[1] = dose: 100.0 mg/kg/injection, schedule: Q04DX002 (ip), vehicle: saline with Tween-80
[2] = dose: 200.0 mg/kg/injection, schedule: Q04DX002 (ip), vehicle: saline with Tween-80
[3] = dose: 400.0 mg/kg/injection, schedule: Q04DX002 (ip), vehicle: saline with Tween-80
[4] = dose: 100.0 mg/kg/injection, schedule: Q04DX003 (ip), vehicle: Klucel (hydroxypropylcellulose) (HPC)
[5] = dose: 200.0 mg/kg/injection, schedule: Q04DX003 (ip), vehicle: Klucel (hydroxypropylcellulose) (HPC)
[6] = dose: 100.0 mg/kg/injection, schedule: Q01DX001 (ip), vehicle: saline
[7] = dose: 200.0 mg/kg/injection, schedule: Q01DX001 (ip), vehicle: saline
[8] = dose: 100.0 mg/kg/injection, schedule: Q01DX009 (ip), vehicle: saline
[9] = dose: 100.0 mg/kg/injection, schedule: Q04DX003 (ip), vehicle: saline
[10] = dose: 100.0 mg/kg/injection, schedule: Q01DX009 (ip), vehicle: saline with Tween-80
[11] = dose: 200.0 mg/kg/injection, schedule: Q01DX009 (ip), vehicle: saline with Tween-80
[12] = dose: 100.0 mg/kg/injection, schedule: Q04DX003 (ip), vehicle: saline with Tween-80
[13] = dose: 200.0 mg/kg/injection, schedule: Q04DX003 (ip), vehicle: saline with Tween-80
[14] = dose: 400.0 mg/kg/injection, schedule: Q04DX003 (ip), vehicle: saline with Tween-80

CCOC(=O)Nc1cc2c(nnn2C(c2ccccc2)c2ccccc2)c(N)n1
T/C (dose: 5.0 mg/kg/injection, schedule: Q01DX001 (ip), vehicle: other): 112 % of control
T/C (dose: 10.0 mg/kg/injection, schedule: Q01DX001 (ip), vehicle: other): 98 % of control
T/C (dose: 20.0 mg/kg/injection, schedule: Q01DX001 (ip), vehicle: other): 93 % of control
T/C (dose: 40.0 mg/kg/injection, schedule: Q01DX001 (ip), vehicle: other): 91 % of control
T/C (dose: 80.0 mg/kg/injection, schedule: Q01DX001 (ip), vehicle: other): 86 % of control

CCOC(=O)c1cc2c([nH]1)CCCC2
T/C [1]: 100 % of control
T/C [2]: 94 % of control
T/C [3]: 97 % of control

O=C(CCl)Oc1c(Cl)c(Cl)c(Cl)c(Cl)c1Cl
T/C (dose: 6.25 mg/kg/injection, schedule: Q04DX003 (ip), vehicle: alcohol): 100 % of control
T/C (dose: 12.5 mg/kg/injection, schedule: Q04DX003 (ip), vehicle: alcohol): 98 % of control
T/C (dose: 25.0 mg/kg/injection, schedule: Q04DX003 (ip), vehicle: alcohol): 98 % of control
T/C (dose: 100.0 mg/kg/injection, schedule: Q04DX003 (ip), vehicle: alcohol): 111 % of control

CN(N=O)C(=O)Nc1ccc(C(=O)O)cc1
T/C (dose: 12.0 mg/kg/injection, schedule: Q01DX Z (ip), vehicle: carboxymethylcellulose (CMC)): 183 % of control
T/C (dose: 17.6 mg/kg/injection, schedule: Q01DX Z (ip), vehicle: carboxymethylcellulose (CMC)): 190 % of control
T/C (dose: 26.4 mg/kg/injection, schedule: Q01DX Z (ip), vehicle: carboxymethylcellulose (CMC)): 209 % of control
T/C (dose: 40.0 mg/kg/injection, schedule: Q01DX Z (ip), vehicle: carboxymethylcellulose (CMC)): 188 % of control and 218 % of control
T/C (dose: 60.0 mg/kg/injection, schedule: Q01DX Z (ip), vehicle: carboxymethylcellulose (CMC)): 118 % of control and 87 % of control
T/C (dose: 80.0 mg/kg/injection, schedule: Q01DX Z (ip), vehicle: carboxymethylcellulose (CMC)): 98 % of control

Fc1cc(F)c(F)c(Nc2c(F)c(F)c(Br)c(F)c2F)c1F
T/C (dose: 25.6 mg/kg/injection, schedule: Q04DX002 (ip), vehicle: saline with Tween-80): 92 % of control
T/C (dose: 64.0 mg/kg/injection, schedule: Q04DX002 (ip), vehicle: saline with Tween-80): 103 % of control
T/C (dose: 160.0 mg/kg/injection, schedule: Q04DX002 (ip), vehicle: saline with Tween-80): 92 % of control
T/C [3]: 95 % of control

O=S(=O)(Nc1ccc(NS(=O)(=O)c2ccccc2)nc1)c1ccccc1
T/C (dose: 100.0 mg/kg/injection, schedule: Q01DX009 (ip), vehicle: Klucel (hydroxypropylcellulose) (HPC)): 96 % of control
T/C [4]: 101 % of control
T/C (dose: 200.0 mg/kg/injection, schedule: Q01DX009 (ip), vehicle: Klucel (hydroxypropylcellulose) (HPC)): 98 % of control
T/C [5]: 97 % of control
T/C (dose: 400.0 mg/kg/injection, schedule: Q01DX009 (ip), vehicle: Klucel (hydroxypropylcellulose) (HPC)): 101 % of control
T/C (dose: 400.0 mg/kg/injection, schedule: Q04DX003 (ip), vehicle: Klucel (hydroxypropylcellulose) (HPC)): 101 % of control

CN(C)c1ccc(I)cc1
T/C (dose: 25.0 mg/kg/injection, schedule: Q01DX001 (ip), vehicle: saline with Tween-80): 107 % of control
T/C (dose: 50.0 mg/kg/injection, schedule: Q01DX001 (ip), vehicle: saline with Tween-80): 110 % of control

Nc1nc(=O)n(C2OC(CO)C(O)C2O)c2ccccc12 (stereo not drawn)
T/C [6]: 101 % of control
T/C [7]: 101 % of control
T/C (dose: 400.0 mg/kg/injection, schedule: Q01DX001 (ip), vehicle: saline): 101 % of control

C[N+](C)(C)CCCCCC[N+](C)(C)C
T/C (dose: 25.0 mg/kg/injection, schedule: Q01DX009 (ip), vehicle: saline): 102 % of control
T/C (dose: 25.0 mg/kg/injection, schedule: Q04DX003 (ip), vehicle: saline): 108 % of control
T/C (dose: 50.0 mg/kg/injection, schedule: Q01DX009 (ip), vehicle: saline): 104 % of control
T/C (dose: 50.0 mg/kg/injection, schedule: Q04DX003 (ip), vehicle: saline): 97 % of control
T/C [8]: 96 % of control
T/C [9]: 94 % of control and 89 % of control

COc1cc(/C=N\N=C(/C)c2ccc(C)cc2C)cc(OC)c1OC
T/C [1]: 88 % of control
T/C [2]: 92 % of control

CC(Cl)(Cl)[N+](=O)[O-]
T/C [10]: 104 % of control
T/C [11]: 104 % of control

CC1C(OC(=O)CCc2ccccc2)=CCC2C1(C)CCC1C2(C)CCC2(C)C3CC(C)(C)CCC3(C)CCC12C (stereo not drawn)
T/C (dose: 50.0 mg/kg/injection, schedule: Q01DX001 (ip), vehicle: saline): 98 % of control
T/C [6]: 102 % of control
T/C [7]: 95 % of control

C=CCOCC(O)CNCCCOC (stereo not drawn)
T/C [8]: 107 % of control
T/C [9]: 96 % of control
T/C (dose: 200.0 mg/kg/injection, schedule: Q01DX009 (ip), vehicle: saline): 98 % of control
T/C (dose: 200.0 mg/kg/injection, schedule: Q04DX003 (ip), vehicle: saline): 98 % of control

CCOC(=O)/C(C#N)=C(\C)c1cccc(C)c1
T/C (dose: 25.0 mg/kg/injection, schedule: Q04DX003 (ip), vehicle: saline with Tween-80): 94 % of control
T/C (dose: 50.0 mg/kg/injection, schedule: Q04DX003 (ip), vehicle: saline with Tween-80): 94 % of control
T/C [12]: 102 % of control

CCCCCCCCCCCC(=O)CC
T/C (dose: 50.0 mg/kg/injection, schedule: Q01DX009 (ip), vehicle: saline with Tween-80): 96 % of control
T/C [10]: 100 % of control
T/C [12]: 98 % of control
T/C [11]: 92 % of control and 93 % of control
T/C [13]: 103 % of control
T/C (dose: 400.0 mg/kg/injection, schedule: Q01DX009 (ip), vehicle: saline with Tween-80): 94 % of control
T/C [14]: 98 % of control

CCNC(=O)Nc1ccc(C(=O)O)c(O)c1 (tested in a mixture with another compound)
T/C [12]: 97 % of control
T/C (dose: 100.0 mg/kg/injection, schedule: Q04DX003 (sc), vehicle: olive oil, sesame oil, peanut oil): 97 % of control
T/C [13]: 92 % of control
T/C (dose: 200.0 mg/kg/injection, schedule: Q04DX003 (sc), vehicle: olive oil, sesame oil, peanut oil): 102 % of control
T/C [14]: 102 % of control
T/C (dose: 400.0 mg/kg/injection, schedule: Q04DX003 (sc), vehicle: olive oil, sesame oil, peanut oil): 97 % of control

Cc1cccc[n+]1Cc1ccccc1
T/C (dose: 9.38 mg/kg/injection, schedule: Q01DX001 (ip), vehicle: saline): 100 % of control
T/C (dose: 18.75 mg/kg/injection, schedule: Q01DX001 (ip), vehicle: saline): 97 % of control
T/C (dose: 37.5 mg/kg/injection, schedule: Q01DX001 (ip), vehicle: saline): 101 % of control

NC(Cc1ccccc1)C(=O)O (stereo not drawn)
T/C (dose: 75.0 mg/kg/injection, schedule: Q01DX001 (ip), vehicle: saline with Tween-80): 102 % of control
T/C (dose: 100.0 mg/kg/injection, schedule: Q01DX001 (ip), vehicle: carboxymethylcellulose (CMC)): 93 % of control
T/C [4]: 102 % of control
T/C (dose: 150.0 mg/kg/injection, schedule: Q01DX001 (ip), vehicle: saline with Tween-80): 102 % of control
T/C (dose: 200.0 mg/kg/injection, schedule: Q01DX001 (ip), vehicle: carboxymethylcellulose (CMC)): 96 % of control
T/C [5]: 86 % of control
T/C (dose: 300.0 mg/kg/injection, schedule: Q01DX001 (ip), vehicle: saline with Tween-80): 98 % of control
T/C (dose: 400.0 mg/kg/injection, schedule: Q01DX001 (ip), vehicle: carboxymethylcellulose (CMC)): 93 % of control

CCCCCC(CN(C)C)C(O)/C=C\c1ccccc1 (stereo not drawn)
T/C (dose: 12.5 mg/kg/injection, schedule: Q01DX009 (sc), vehicle: steriod suspending solution): 97 % of control
T/C (dose: 12.5 mg/kg/injection, schedule: Q04DX003 (ip), vehicle: other): 119 % of control
T/C (dose: 25.0 mg/kg/injection, schedule: Q01DX009 (sc), vehicle: steriod suspending solution): 98 % of control
T/C (dose: 25.0 mg/kg/injection, schedule: Q04DX003 (ip), vehicle: other): 106 % of control
T/C (dose: 50.0 mg/kg/injection, schedule: Q01DX009 (sc), vehicle: steriod suspending solution): 97 % of control
T/C (dose: 50.0 mg/kg/injection, schedule: Q04DX003 (ip), vehicle: other): 103 % of control
